Columns and labels:
Format in all cases: cell-based
[1] = system: human breast adenocarcinoma (MCF-7) cell line; experiment: Cell viability assay, NRU endpoint, MCF-7; conditions: for IC50: Homo sapiens, MCF7, 24 h incubation, 10–250 µg/mL; for SI250 (selective toxicity at 250 µg/mL): MCF-7 compared to 3T3, 250 µg/mL, 24 h
Experimental: (§1) The murine Swiss albino fibroblasts (3T3), the human breast adenocarcinoma (MCF-7), the human epithelial carcinoma (HeLa) and the squamous cell carcinoma (A431) cell lines were obtained from Celltec UB. Cells were grown in DMEM medium (4.5 g/L glucose) supplemented with 10% (v/v) FBS, 2 mM L-glutamine, 100 U/mL penicillin and 100 µg/mL streptomycin at 37 °C, 5% CO2. Cells were routinely cultured in 75 cm^2 culture flasks and were trypsinized using trypsin–EDTA when the cells reached approximately 80% confluence. The trypan blue assay, which allows for a direct identification and enumeration of the live (unstained) and dead (blue) cells in the cell population, was used to evaluate the viability of the cells in the cell suspension obtained.
(§2) 3T3 (1 × 10^5 cells/mL), A431, HeLa and MCF-7 cells (5 × 10^4 cells/mL) were grown at defined densities in the 60 central wells of a 96-well plate. Cells were incubated for 24 h in 5% CO2 at 37 °C. Then, the spent medium was removed, and cells were incubated for 24 h with their corresponding compound solutions (1 mg/mL) previously diluted in a minimum amount of DMF (dimethylformamide) and then in DMEM medium supplemented with 5% FBS (100 µL) at the required concentration range (10–250 µg/mL). The viability of the cells upon incubation with the lactam derivatives was assayed using 2 different endpoints: NRU and MTT.
(§3) The neutral red uptake (NRU) assay is based on the accumulation of dye in the lysosomes of viable cells. After the cells were incubated for 24 h with the corresponding systems, the medium was removed, and the solutions were incubated with the NR dye (Sigma-Aldrich, St. Louis, MO, USA) solution (50 µg/mL) dissolved in the medium, without FBS and without phenol red (Lonza, Verviers, Belgium), for 3 h. Cells were then washed with sterile PBS, followed by the addition of 100 µL of a solution containing 50% absolute ethanol and 1% acetic acid in distilled water to extract the dye. To promote the total dissolution of the dye, plates were placed in a microtiter-plate shaker for 5 min at room temperature. The absorbance of the resulting solutions was measured at 550 nm (Bio-Rad 550 microplate reader, Bio-Rad California, Hercules, CA, USA). Finally, the effect of each treatment was calculated as the percentage of dye uptake by viable cells relative to the control cells (cells without any treatment).
(§4) The corresponding half-maximal inhibitory concentration (IC50) values for the different formulations as a function of the cell line and endpoint were determined from the fitting of concentration-dependent viability curves. The corresponding selectivity indexes toward tumoral cells were calculated using the following ratio: SI = IC50 (non-tumoral cell line)/IC50 (tumoral cell line) where 3T3 fibroblasts were used as close representative cells under non-tumoral conditions. Moreover, pseudo selectivity indexes toward tumoral cells were calculated considering the discrete cellular responses at the maximum tested concentration (250 µg/mL).

[2] = Cell viability assay, NRU endpoint, cell line not specified; conditions: up to 250 µg/mL, read-out: minimum cell viability values
Experimental: as §1, §2, §3

[3] = system: human epithelial carcinoma (HeLa) cell line; experiment: Cell viability assay, MTT endpoint, HeLa; conditions: HeLa; for IC50: Homo sapiens, 24 h, 24 h incubation, 10–250 µg/mL
Experimental: as §1, §2
(§5) Only living cells can reduce the yellow tetrazolium salt 3-(4,5-dimethyl-2-thiazolyl)-2,5-diphenyltetrazolium bromide (MTT) to insoluble purple formazan crystals. After a 24 h incubation of the cells with their corresponding NPs, the medium was removed and 100 µL of MTT (Sigma-Aldrich, St. Louis, USA) in PBS (5 mg/mL) diluted 1:10 in culture medium without phenol red and without FBS (Lonza, Verviers, Belgium) was added to the cells. After 3 h of incubation, the medium was removed. Thereafter, 100 µL of DMSO (Sigma-Aldrich, St. Louis, MO, USA) was added to each well to dissolve the purple formazan crystals. Agitation and determination of the absorbance of the extracted solution were performed under the same conditions as described in NRU Assay section. Finally, the effect of each treatment was calculated as the percentage of tetrazolium salt’s reduction by viable cells relative to control cells (cells without any treatment).
as §4

[4] = system: murine Swiss albino fibroblasts (3T3); experiment: Cell viability assay, MTT endpoint, 3T3; conditions: Mus musculus, Fibroblast, 3T3, 24 h incubation, 10–250 µg/mL
Experimental: as §1, §2, §5, §4

[5] = system: squamous cell carcinoma (A431) cell line; experiment: Cell viability assay, NRU endpoint, A431; conditions: for IC50: Homo sapiens, A-431, 24 h, A431, 24 h incubation, 10–250 µg/mL; for SI250 (selective toxicity at 250 µg/mL): A431 compared to 3T3, 250 µg/mL, 24 h
Experimental: as §1, §2, §3, §4

[6] = Cell viability assay, MTT endpoint, cell line not specified; conditions: under discrete conditions, up to 250 µg/mL, read-out: minimum cell viability values
Experimental: as §1
3T3 (1 × 10^5 cells/mL), A431, HeLa and MCF-7 cells (5 × 10^4 cells/mL) were grown at defined densities in the 60 central wells of a 96-well plate. […]
Only living cells can reduce the yellow tetrazolium salt 3-(4,5-dimethyl-2-thiazolyl)-2,5-diphenyltetrazolium bromide (MTT) to insoluble purple formazan crystals. […] Agitation and determination of the absorbance of the extracted solution were performed under the same conditions as described in NRU Assay section. Finally, the effect of each treatment was calculated as the percentage of tetrazolium salt’s reduction by viable cells relative to control cells (cells without any treatment).

[7] = system: human epithelial carcinoma (HeLa) cell line; experiment: Cell viability assay, NRU endpoint, HeLa; conditions: 24 h incubation, 10–250 µg/mL
Experimental: as §1, §2, §3, §4

[8] = system: squamous cell carcinoma (A431) cell line; experiment: Cell viability assay, MTT endpoint, A431; conditions: for SI250 (selective toxicity at 250 µg/mL): A431 compared to 3T3, 250 µg/mL, 24 h; for IC50: Homo sapiens, A-431, 24 h, A431, 24 h incubation, 10–250 µg/mL
Experimental: as §1, §2, §5, §4

human erythrocytes = experiment: Hemolysis assay with human erythrocyte suspension; conditions: 80 µg/mL, PBS pH 7.4
Experimental: (§6) Human blood samples were obtained from the Banc de Sang i Teixits de Barcelona (Spain) from the Catalan Department of Health. Blood was deposited in tubes with the anticoagulant EDTA-K3. Blood samples were centrifuged at 3000 rpm and 4 °C for 10 min (Megafuge 2.0 R. Heraeus Instruments, Hanau, Germany) to induce sedimentation. Plasma was extracted with a Pasteur pipette. Next, the residual pellet was washed with PBS at pH 7.4. This procedure was repeated three times to remove residual leukocytes and platelets and to concentrate the erythrocytes. Following the last wash, the erythrocyte suspension was diluted (1:1) in PBS at pH 7.4 to obtain a suitable erythrocyte suspension (cell density of 8 × 10^9 cell/mL).
(§7) The hemolysis assay determined the capability of different compounds to induce the hemolysis of the erythrocyte membrane. Stock solutions of each compound at 1 mg/mL in PBS at pH 7.4 were prepared. Different volumes (10–80 μL) were placed in polystyrene tubes, and an aliquot of 25 µL of the erythrocyte suspensions was added to each tube. The final volume was 1 mL. The tubes were incubated at room temperature under rotatory conditions. Then, the tubes were centrifuged at 10,000 rpm for 5 min. The supernatants’ absorbance at 540 nm (Shimadzu UV-160A, Shimadzu, Duisburg, Germany) was compared with that of the positive (erythrocytes hemolyzed with distilled water) and negative (erythrocyte suspension in PBS at pH 7.4.) controls.
(§8) The degree of hemolysis was determined using the following equation:Hemolysis (%) = 100 × (Abs − Abs0)/(Abs100 − Abs0) where Abs, Abs0 and Abs100 are the absorbance of the test samples, of the suspension treated with isotonic phosphate–buffered saline (PBS) and of the suspension of complete hemolysis treated with distilled water, respectively.

[9] = Hemolysis assay with human erythrocyte suspension; conditions: human, washed human erythrocyte suspension, PBS pH 7.4, read-out: degree of hemolysis
Experimental: as §6, §7, §8

[10] = system: human breast adenocarcinoma (MCF-7) cell line; experiment: Cell viability assay, MTT endpoint, MCF-7; conditions: for IC50: Homo sapiens, MCF7, 24 h incubation, 10–250 µg/mL
Experimental: as §1, §2, §5, §4

[11] = system: murine Swiss albino fibroblasts (3T3); experiment: Cell viability assay, NRU endpoint, 3T3; conditions: Mus musculus, Fibroblast, 3T3, 24 h incubation, 10–250 µg/mL
Experimental: as §1, §2, §3, §4

[12] = Cell viability assay, MTT endpoint, A431; conditions: human, A431 squamous cell carcinoma cells, A431, highest assayed concentration 250 µg/mL, 24 h
Experimental: as §1, §2, §5, §4

IC50 [1] [µg/mL]	IC50 [3] [µg/mL]	IC50 [5] [µg/mL]	IC50 [7] [µg/mL]	IC50 [8] [µg/mL]	IC50 ([10]; MTT) [µg/mL]	SMILES	viability at 24 h [2] [%]	IC50 [4] [µg/mL]	viability at 24 h [6] [%]	SI250 (selective toxicity at 250 µg/mL) [8]	degree of hemolysis (human erythrocytes)	hemolysis at 10 µg/mL [9] [%]	IC50 [11] [µg/mL]	SI250 (selective toxicity at 250 µg/mL) [1]	viability at 24 h, 250 µg/mL [12] [%]	hemolysis at 80 µg/mL [9] [%]	SI250 (selective toxicity at 250 µg/mL) [5]	SI250 (selective toxicity at 250 µg/mL) ([10]; MTT, MCF-7 compared to 3T3, 250 µg/mL, 24 h)	effect on proliferation of tumor cells ([3]; under the assayed conditions)	effect on proliferation of tumor cells ([10]; MCF-7, MTT, under the assayed conditions)
> 250	> 250	> 250	> 250	–	> 250	O=C1N(c2ccccc2)CC(CCl)C1(Cl)Cl (stereo not drawn) [2d, 3,3-Dichloro-4-(chloromethyl)-1-phenylpyrrolidin-2-one]	80 to 85	> 250	–	1.4	–	0.005	> 250	one	50	0.1	–	–	–	–
> 250	> 250	> 250	> 250	> 250	> 250	CC(C)(C)N1CCC(CCl)C(Cl)(Cl)C1=O (stereo not drawn) [2i, 1-(tert-Butyl)-3,3-dichloro-4-(chloromethyl)piperidin-2-one]	70	> 250	–	1.1	–	0.003	> 250	one	–	~0.07	1.1	one	–	–
> 250	> 250	> 250	> 250	> 250	> 250	O=C1CCC(N2CC(CCl)C(Cl)(Cl)C2=O)CC1 (stereo not drawn) [2p]	100	> 250	60 to 70	–	–	0.005	> 250	one	–	~0.07	1.1	–	could promote the proliferation	could promote the proliferation

SMILES	IC50 [1] [µg/mL]	IC50 [3] [µg/mL]	IC50 [5] [µg/mL]	IC50 [7] [µg/mL]	IC50 [8] [µg/mL]	IC50 ([10]; MTT) [µg/mL]	viability at 24 h [2] [%]	IC50 [4] [µg/mL]	viability at 24 h [6] [%]	SI250 (selective toxicity at 250 µg/mL) [8]	degree of hemolysis (human erythrocytes)	hemolysis at 10 µg/mL [9] [%]	IC50 [11] [µg/mL]	SI250 (selective toxicity at 250 µg/mL) [1]	viability at 24 h, 250 µg/mL [12] [%]	hemolysis at 80 µg/mL [9] [%]	SI250 (selective toxicity at 250 µg/mL) [5]	SI250 (selective toxicity at 250 µg/mL) ([10]; MTT, MCF-7 compared to 3T3, 250 µg/mL, 24 h)	effect on proliferation of tumor cells ([3]; under the assayed conditions)	effect on proliferation of tumor cells ([10]; MCF-7, MTT, under the assayed conditions)
O=C1NCC(CCl)C1(Cl)Cl (stereo not drawn) [2b, 3,3-Dichloro-4-(chloromethyl)pyrrolidin-2-one]	> 250	> 250	> 250	> 250	> 250	> 250	80 to 85	> 250	60 to 70	1.1	remained stable	0.02	> 250	–	–	–	–	–	–	–

From PMC11085086, “Microwave-Assisted Atom Transfer Radical Cyclization in the Synthesis of 3,3-Dichloro-γ- and δ-Lactams from N-Alkenyl-Tethered Trichloroacetamides Catalyzed by RuCl2(PPh3)3 and Their Cytotoxic Evaluation” (Molecules, 2024)
